Consider one molecule from patent US20120172340A1, “Compositions and Methods for Selectively Activating Human Sirtuins” (BIOMOL International L.P., priority 2004, published 2012).

Numbering of substitutions follows the chain as printed. Where only a bound is given, the exact number is not on record here.

In one experiment the target is T1, human SIRT1 (Homo sapiens, UniProt Q96EB6).
T1 construct: made in house; host or cells: E. coli
T1 sequence (Q96EB6 1-747): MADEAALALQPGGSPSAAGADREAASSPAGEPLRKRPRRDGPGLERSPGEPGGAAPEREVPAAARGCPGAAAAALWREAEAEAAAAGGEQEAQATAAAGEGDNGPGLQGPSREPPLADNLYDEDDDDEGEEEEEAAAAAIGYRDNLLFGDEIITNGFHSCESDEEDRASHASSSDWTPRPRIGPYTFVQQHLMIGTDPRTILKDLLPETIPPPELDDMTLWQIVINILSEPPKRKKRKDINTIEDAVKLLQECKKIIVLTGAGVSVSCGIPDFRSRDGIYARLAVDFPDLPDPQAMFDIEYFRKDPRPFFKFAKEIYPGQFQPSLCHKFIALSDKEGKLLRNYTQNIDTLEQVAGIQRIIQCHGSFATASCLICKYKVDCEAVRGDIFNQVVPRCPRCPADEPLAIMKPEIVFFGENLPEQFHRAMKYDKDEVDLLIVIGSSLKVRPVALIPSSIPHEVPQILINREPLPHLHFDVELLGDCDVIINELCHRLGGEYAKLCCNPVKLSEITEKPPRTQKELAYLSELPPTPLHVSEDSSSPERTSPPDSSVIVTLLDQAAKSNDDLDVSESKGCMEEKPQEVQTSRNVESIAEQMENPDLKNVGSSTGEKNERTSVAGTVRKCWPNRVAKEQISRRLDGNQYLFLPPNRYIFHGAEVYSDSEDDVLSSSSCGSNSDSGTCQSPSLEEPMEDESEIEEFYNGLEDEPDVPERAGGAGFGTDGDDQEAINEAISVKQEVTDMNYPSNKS
Description: SIRT1 rate measurement, fluorogenic p53-382 peptide deacetylation. It counts as biochemical.

The target in a further experiment is T2, SIRT5Δ1-39 (Homo sapiens, UniProt Q9NXA8).
T2 construct: in which the first 39 residues were deleted (SIRT5Δ1-39); made in house
T2 sequence (Q9NXA8 40-310): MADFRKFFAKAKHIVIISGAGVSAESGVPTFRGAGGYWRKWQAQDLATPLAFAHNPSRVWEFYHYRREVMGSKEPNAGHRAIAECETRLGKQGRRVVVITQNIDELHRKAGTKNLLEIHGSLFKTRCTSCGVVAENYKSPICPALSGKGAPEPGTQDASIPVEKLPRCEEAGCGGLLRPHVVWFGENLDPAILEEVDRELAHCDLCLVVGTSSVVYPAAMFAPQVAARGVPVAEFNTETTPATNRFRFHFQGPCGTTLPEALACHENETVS
Description: Deacetylation activity of N-terminally truncated SIRT5. It counts as biochemical. Conditions: 500 μM resveratrol; 1 mM p53-382 peptide, 12 mM NAD+; compared with full-length SIRT5.

The target of a further experiment is T3, dSir2 (Drosophila melanogaster, UniProt Q9VK34, DEL53-54/DUP289-290/L518H/P746H/V753F).
T3 construct: made in house; host or cells: E. coli
In words: Resveratrol dose-response, fluorogenic deacetylation, dSir2. Conditions: 25° C., 50 μM NAD+, 50 μM Fluor de Lys acetylated lysine substrate; FIG. 1. The class given is biochemical, D. melanogaster.

The target in another experiment is T4, ySir2 (Saccharomyces cerevisiae, UniProt P06700).
T4 construct: made in house; host or cells: E. coli
In words: Resveratrol dose-response, fluorogenic deacetylation, ySir2. The conditions noted are these: 30° C., 200 μM NAD+, 200 μM p53-382; FIG. 1. The class given is biochemical, S. cerevisiae (budding yeast).

The next experiment has as its target T5, human SIRT3 (Homo sapiens, UniProt Q9NTG7).
T5 construct: made in house; host or cells: E. coli
T5 sequence (Q9NTG7 1-399): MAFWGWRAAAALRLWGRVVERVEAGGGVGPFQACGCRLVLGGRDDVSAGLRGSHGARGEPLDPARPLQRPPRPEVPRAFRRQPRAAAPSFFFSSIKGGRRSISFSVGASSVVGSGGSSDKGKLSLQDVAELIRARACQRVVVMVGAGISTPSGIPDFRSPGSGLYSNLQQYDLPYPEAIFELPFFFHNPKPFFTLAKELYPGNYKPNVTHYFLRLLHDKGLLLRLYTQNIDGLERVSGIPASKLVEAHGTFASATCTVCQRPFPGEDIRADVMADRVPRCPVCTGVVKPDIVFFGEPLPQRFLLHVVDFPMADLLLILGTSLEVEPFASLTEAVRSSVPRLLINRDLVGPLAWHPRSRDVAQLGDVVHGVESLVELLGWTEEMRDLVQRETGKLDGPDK
In words: Resveratrol dose-response, fluorogenic deacetylation, SIRT3. The class given is biochemical. The conditions noted are these: 37° C., 25 μM NAD+, 25 μM p53-320; FIG. 1.

In the next experiment the target is T6, E230K mutant SIRT1 (Homo sapiens, UniProt Q96EB6, E230K).
T6 construct: made in house; host or cells: E. coli
T6 sequence (Q96EB6 1-747 E230K): T1 sequence (Q96EB6 1-747) with E230K
Description: Resveratrol dose-response, fluorogenic deacetylation, E230K mutant SIRT1. The class given is biochemical. The conditions noted are these: 37° C., 25 μM NAD+, 25 μM p53-382; FIG. 1A.

For the next experiment, the target named is T7, human SIRT5 (Homo sapiens, UniProt Q9NXA8).
T7 sequence (Q9NXA8 37-310): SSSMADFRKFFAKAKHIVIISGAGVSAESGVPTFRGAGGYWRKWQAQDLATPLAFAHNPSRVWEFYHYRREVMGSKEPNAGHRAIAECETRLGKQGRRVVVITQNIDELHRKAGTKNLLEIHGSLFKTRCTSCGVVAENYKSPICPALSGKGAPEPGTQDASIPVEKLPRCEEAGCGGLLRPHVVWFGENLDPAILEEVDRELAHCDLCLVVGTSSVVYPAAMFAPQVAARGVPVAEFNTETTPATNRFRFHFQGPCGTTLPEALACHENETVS
Conditions: 500 μM resveratrol; saturating NAD+ (12 mM).

T3 sequence (Q9VK34 other isoform, or with tags, fused parts or gaps DEL53-54/DUP289-290/L518H/P746H/V753F): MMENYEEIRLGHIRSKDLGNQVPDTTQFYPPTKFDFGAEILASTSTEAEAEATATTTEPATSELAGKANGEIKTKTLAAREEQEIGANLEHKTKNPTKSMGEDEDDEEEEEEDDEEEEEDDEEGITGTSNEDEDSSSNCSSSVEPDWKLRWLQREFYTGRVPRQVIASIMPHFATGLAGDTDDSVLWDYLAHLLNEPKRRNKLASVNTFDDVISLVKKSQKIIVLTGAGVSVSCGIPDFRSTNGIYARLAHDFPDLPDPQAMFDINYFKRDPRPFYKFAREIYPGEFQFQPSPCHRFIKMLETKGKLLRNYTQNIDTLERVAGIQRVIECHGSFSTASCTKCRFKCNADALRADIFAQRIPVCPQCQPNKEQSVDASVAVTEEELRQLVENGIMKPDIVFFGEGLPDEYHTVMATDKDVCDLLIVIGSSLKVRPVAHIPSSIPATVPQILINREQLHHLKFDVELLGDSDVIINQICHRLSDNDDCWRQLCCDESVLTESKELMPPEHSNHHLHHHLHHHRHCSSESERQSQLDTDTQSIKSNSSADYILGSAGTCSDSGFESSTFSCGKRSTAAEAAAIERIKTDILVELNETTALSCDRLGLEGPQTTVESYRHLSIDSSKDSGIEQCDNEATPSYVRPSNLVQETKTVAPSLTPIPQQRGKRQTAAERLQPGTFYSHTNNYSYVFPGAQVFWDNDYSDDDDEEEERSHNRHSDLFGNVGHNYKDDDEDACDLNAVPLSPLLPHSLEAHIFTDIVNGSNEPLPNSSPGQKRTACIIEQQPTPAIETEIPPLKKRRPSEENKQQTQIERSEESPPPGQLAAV
T4 sequence (P06700 whole entry): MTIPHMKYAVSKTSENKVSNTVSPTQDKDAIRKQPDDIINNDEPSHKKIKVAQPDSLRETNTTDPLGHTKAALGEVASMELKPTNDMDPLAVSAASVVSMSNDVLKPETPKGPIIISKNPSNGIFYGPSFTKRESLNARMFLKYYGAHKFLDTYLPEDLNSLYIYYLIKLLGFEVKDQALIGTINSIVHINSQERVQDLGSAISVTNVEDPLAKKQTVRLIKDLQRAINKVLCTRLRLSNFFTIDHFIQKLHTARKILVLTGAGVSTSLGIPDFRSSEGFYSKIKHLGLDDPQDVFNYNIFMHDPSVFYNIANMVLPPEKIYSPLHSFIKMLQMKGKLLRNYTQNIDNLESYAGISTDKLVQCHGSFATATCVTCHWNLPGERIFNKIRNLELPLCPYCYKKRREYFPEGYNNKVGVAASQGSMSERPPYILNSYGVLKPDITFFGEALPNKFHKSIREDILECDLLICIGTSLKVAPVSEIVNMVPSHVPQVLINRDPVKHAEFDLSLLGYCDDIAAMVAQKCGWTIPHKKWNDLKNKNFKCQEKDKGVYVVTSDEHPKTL

In the case of `Oc1ccc(/C=C/c2cc(O)cc(O)c2)cc1` [Resveratrol, 3,5,4′-Trihydroxy-trans-stilbene], the “resveratrol-dependent rate increase, human SIRT1” value at human SIRT1 (37° C., 25 μM NAD+, 25 μM p53-382, FIG. 1) is reported as “rate increases are seen”. On human SIRT1 (FIG. 1A), the “resveratrol concentration at which maximum rate stimulation occurred, SIRT1” value is over 100 µM. At SIRT5Δ1-39, the “stimulation of SIRT5Δ1-39 deacetylation activity” value is “similarly stimulated”. The “resveratrol-dependent rate increase, dSir2” value on dSir2 was “rate increases are seen”. For the same molecule, the “resveratrol-dependent rate increase, ySir2” value on ySir2 is listed as “rate increases are seen”. The “resveratrol-dependent rate increase, human SIRT3” value on human SIRT3 is recorded as “not”. In addition, the “resveratrol activation of E230K mutant SIRT1” value on E230K mutant SIRT1 is given as “diminished resveratrol activation”. The “lowering of the Km for the p53-382 peptide” value at human SIRT5 was “more than ten-fold”.
